Measured values reported in ChEMBL document CHEMBL4814035, “Structure-activity relationship studies of 3-substituted pyrazoles as novel allosteric inhibitors of MALT1 protease” (Bioorg Med Chem Lett, 2021).

What was measured:
[1] = target: T1, Mucosa-associated lymphoid tissue lymphoma translocation protein 1 (Homo sapiens) (UniProt Q9UDY8); experiment: Inhibition of MALT1 (unknown origin) at 25 uM relative to control
T1 sequence (whole entry): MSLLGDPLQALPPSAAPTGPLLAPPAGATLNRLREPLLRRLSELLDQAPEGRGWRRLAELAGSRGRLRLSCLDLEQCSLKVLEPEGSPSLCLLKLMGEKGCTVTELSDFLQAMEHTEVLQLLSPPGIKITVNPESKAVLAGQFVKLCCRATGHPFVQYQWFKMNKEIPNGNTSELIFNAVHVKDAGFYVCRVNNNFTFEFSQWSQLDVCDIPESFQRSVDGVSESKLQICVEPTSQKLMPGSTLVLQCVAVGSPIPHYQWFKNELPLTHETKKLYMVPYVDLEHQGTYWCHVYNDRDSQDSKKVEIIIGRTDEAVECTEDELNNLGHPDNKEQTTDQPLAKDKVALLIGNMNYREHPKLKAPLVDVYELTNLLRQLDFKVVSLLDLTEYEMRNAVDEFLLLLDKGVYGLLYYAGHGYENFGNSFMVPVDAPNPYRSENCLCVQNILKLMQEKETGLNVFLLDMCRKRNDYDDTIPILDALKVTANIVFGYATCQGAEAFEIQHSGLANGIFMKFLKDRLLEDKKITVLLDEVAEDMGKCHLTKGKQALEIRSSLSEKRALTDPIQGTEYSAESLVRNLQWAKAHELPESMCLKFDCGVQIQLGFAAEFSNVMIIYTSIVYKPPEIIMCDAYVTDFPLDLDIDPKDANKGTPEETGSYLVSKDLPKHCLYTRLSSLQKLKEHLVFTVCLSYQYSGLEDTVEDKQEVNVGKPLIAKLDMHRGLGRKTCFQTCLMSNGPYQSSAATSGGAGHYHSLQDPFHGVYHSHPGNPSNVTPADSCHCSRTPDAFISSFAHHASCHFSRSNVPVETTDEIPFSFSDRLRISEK

[2] = target: T2, Mucosa-associated lymphoid tissue lymphoma translocation protein 1 (Homo sapiens, UniProt Q9UDY8); experiment: Inhibition of MALT1 (unknown origin)
T2 sequence (Q9UDY8 whole entry): T1 sequence (whole entry)

[3] = target: Nuclear factor NF-kappa-B complex (Homo sapiens, UniProt P19838+Q00653+Q04206); experiment: Inhibition of NF-kappaB (unknown origin); format: protein-complex assay
Chain of Nuclear factor NF-kappa-B complex (P19838 1-433 limits assumed): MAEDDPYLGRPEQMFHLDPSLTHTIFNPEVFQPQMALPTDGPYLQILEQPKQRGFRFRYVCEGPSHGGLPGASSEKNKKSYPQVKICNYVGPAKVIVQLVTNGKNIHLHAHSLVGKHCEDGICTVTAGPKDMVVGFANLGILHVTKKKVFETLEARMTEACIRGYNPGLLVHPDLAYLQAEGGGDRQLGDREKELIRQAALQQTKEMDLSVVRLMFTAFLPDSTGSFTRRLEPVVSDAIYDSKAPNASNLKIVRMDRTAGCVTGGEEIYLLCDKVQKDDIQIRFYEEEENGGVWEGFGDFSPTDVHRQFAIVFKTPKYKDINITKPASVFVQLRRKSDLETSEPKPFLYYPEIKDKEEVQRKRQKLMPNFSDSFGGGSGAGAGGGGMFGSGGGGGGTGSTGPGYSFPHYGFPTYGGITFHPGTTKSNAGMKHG
Chain of Nuclear factor NF-kappa-B complex (Q00653 1-454 limits assumed): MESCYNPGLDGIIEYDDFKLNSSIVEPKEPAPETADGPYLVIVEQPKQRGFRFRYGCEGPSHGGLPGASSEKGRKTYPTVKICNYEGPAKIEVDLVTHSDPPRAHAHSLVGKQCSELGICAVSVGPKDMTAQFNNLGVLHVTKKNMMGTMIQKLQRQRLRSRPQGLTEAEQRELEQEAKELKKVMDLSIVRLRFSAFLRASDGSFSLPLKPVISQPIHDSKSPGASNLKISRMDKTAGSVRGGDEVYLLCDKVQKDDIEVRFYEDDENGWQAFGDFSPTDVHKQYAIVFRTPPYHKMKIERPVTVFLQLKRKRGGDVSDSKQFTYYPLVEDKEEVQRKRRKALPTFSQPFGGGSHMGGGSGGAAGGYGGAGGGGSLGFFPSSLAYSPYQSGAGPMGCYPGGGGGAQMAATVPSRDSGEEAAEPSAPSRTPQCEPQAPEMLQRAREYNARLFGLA
Chain of Nuclear factor NF-kappa-B complex (Q04206 whole entry): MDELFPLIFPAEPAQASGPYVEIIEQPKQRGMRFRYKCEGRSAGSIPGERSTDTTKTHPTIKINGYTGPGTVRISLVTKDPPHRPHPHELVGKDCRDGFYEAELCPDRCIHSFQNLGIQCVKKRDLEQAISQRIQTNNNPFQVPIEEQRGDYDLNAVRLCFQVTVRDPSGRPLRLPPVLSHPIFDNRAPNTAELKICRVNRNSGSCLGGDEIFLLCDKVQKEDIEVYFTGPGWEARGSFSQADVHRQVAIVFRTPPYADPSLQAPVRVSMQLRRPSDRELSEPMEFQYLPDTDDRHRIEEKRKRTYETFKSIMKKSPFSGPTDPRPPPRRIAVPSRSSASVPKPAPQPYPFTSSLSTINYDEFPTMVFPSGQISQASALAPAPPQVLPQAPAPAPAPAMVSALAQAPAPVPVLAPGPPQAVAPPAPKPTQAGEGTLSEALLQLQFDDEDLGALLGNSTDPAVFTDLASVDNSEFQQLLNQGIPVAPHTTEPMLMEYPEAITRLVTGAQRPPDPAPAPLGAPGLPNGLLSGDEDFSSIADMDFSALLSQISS

[4] = substrate: CN(C)CCNC(=O)c1cc(-c2ccc(Cl)cc2)n(-c2ccc(Cl)cc2)n1; conditions: Homo sapiens; dose 0.5 µM
Description: Non-competitive inhibition of MALT1 (unknown origin) assessed as Michaelis-constant at 0.5 uM by Michaelis-Menten analysis (Rvb = 246.9 microM)

## CNC(=O)c1cc(-c2ccc(F)cc2)n(-c2ccc(Cl)cc2)n1
[1]
  inhibition: 47%
[2]
  IC50: > 25 µM

## CNC(=O)c1cc(-c2ccc(Cl)cc2)n(C2CCCCC2)n1
[1]
  inhibition: 63%

## NCCNC(=O)c1cc(-c2ccc(Cl)cc2)n(-c2ccc(Cl)cc2)n1
[2]
  IC50: 1.98 µM

## CNC(=O)c1cc(-c2ccc(OC)cc2)n(-c2ccc(Cl)cc2)n1
[1]
  inhibition: 80%
[2]
  IC50: 6.55 µM

## CCN1CCC[C@@H]1CNC(=O)c1cc(-c2ccc(Cl)cc2)n(-c2ccc(Cl)cc2)n1
[2]
  IC50: 2.1 µM

## O=C(NCCc1ccccc1)c1cc(-c2ccc(Cl)cc2)n(-c2ccc(Cl)cc2)n1
[2]
  IC50: > 25 µM

## CNC(=O)c1cc(-c2ccsc2)n(-c2ccc(Cl)cc2)n1
[1]
  inhibition: 26%
[2]
  IC50: > 25 µM

## CNC(=O)c1cc(-c2ccc(Cl)cc2)n(-c2ccccc2Cl)n1
[1]
  inhibition: 46%
[2]
  IC50: > 25 µM

## NC(=O)CCNC(=O)c1cc(-c2ccc(Cl)cc2)n(-c2ccc(Cl)cc2)n1
[2]
  IC50: 13.4 µM

## O=C(NCCCO)c1cc(-c2ccc(Cl)cc2)n(-c2ccc(Cl)cc2)n1
[2]
  IC50: 12.4 µM

## CN1CCCCC1CNC(=O)c1cc(-c2ccc(Cl)cc2)n(-c2ccc(Cl)cc2)n1 (stereo unspecified)
[2]
  IC50: 0.521 µM

## CNC(=O)c1cc(-c2ccc(C#N)cc2)n(-c2ccc(Cl)cc2)n1
[1]
  inhibition: 31%
[2]
  IC50: > 25 µM

## CNC(=O)c1cc(-c2ccc(Cl)cc2)n(-c2ccc(Cl)cc2)n1
[1]
  inhibition: 72%
[2]
  IC50: 7.01 µM
[3]
  IC50: 9.34 µM

## CNC(=O)c1cc(-c2ccco2)n(-c2ccc(Cl)cc2)n1
[1]
  inhibition: 20%
[2]
  IC50: > 25 µM

## CN1CCCC(NC(=O)c2cc(-c3ccc(Cl)cc3)n(-c3ccc(Cl)cc3)n2)C1 (stereo unspecified)
[2]
  IC50: 1.7 µM

## CNC(=O)c1cc(-c2ccccc2Cl)n(-c2ccc(Cl)cc2)n1
[1]
  inhibition: 23%
[2]
  IC50: > 25 µM

## CNC(=O)c1cc(-c2ccc(CO)cc2)n(-c2ccc(Cl)cc2)n1
[1]
  inhibition: 19%
[2]
  IC50: > 25 µM

## CNC(=O)c1cc(-c2cccc(Cl)c2)n(-c2ccc(Cl)cc2)n1
[1]
  inhibition: 43%
[2]
  IC50: > 25 µM

## CNCCNC(=O)c1cc(-c2ccc(Cl)cc2)n(-c2ccc(Cl)cc2)n1
[2]
  IC50: 0.8 µM

## CN(C)CCCNC(=O)c1cc(-c2ccc(Cl)cc2)n(-c2ccc(Cl)cc2)n1
[2]
  IC50: 2.63 µM

## CN(C)C(=O)c1cc(-c2ccc(Cl)cc2)n(-c2ccc(Cl)cc2)n1
[2]
  IC50: 21.2 µM

## NCCCNC(=O)c1cc(-c2ccc(Cl)cc2)n(-c2ccc(Cl)cc2)n1
[2]
  IC50: 7.39 µM

## O=C(NCC1CCCCC1)c1cc(-c2ccc(Cl)cc2)n(-c2ccc(Cl)cc2)n1
[2]
  IC50: > 25 µM

## CNC(=O)c1cc(-c2ccc(OC(F)(F)F)cc2)n(-c2ccc(Cl)cc2)n1
[1]
  inhibition: 38%
[2]
  IC50: > 25 µM

## CNC(=O)c1cc(-c2ccc(C(F)(F)F)cc2)n(-c2ccc(Cl)cc2)n1
[1]
  inhibition: 47%
[2]
  IC50: > 25 µM

## CC(=O)NCCNC(=O)c1cc(-c2ccc(Cl)cc2)n(-c2ccc(Cl)cc2)n1
[2]
  IC50: 3.3 µM

## CN(C)C1CCN(C(=O)c2cc(-c3ccc(Cl)cc3)n(-c3ccc(Cl)cc3)n2)C1 (stereo unspecified)
[2]
  IC50: 10.6 µM

## CNC(=O)c1cc(-c2ccc(S(C)(=O)=O)cc2)n(-c2ccc(Cl)cc2)n1
[1]
  inhibition: 5.7%
[2]
  IC50: > 25 µM

## CNC(=O)c1cc(-c2ccc(Cl)cc2)n(-c2cccc(Cl)c2)n1
[1]
  inhibition: 57%

## CN(C)CCNC(=O)c1cc(-c2ccc(Cl)cc2)n(-c2ccc(Cl)cc2)n1
[2]
  IC50: 0.49 µM
[3]
  IC50: 5.41 µM

## CNC(=O)c1cc(-c2ccc(Cl)cc2)n(C)n1
[1]
  inhibition: 7.7%
[2]
  IC50: > 25 µM

## O=C(NCC1COCCN1)c1cc(-c2ccc(Cl)cc2)n(-c2ccc(Cl)cc2)n1 (stereo unspecified)
[2]
  IC50: 0.819 µM

## CNC(=O)c1cc(-c2ccc(OC)nc2)n(-c2ccc(Cl)cc2)n1
[1]
  inhibition: 21%
[2]
  IC50: > 25 µM

## CN(C)CCCCNC(=O)c1cc(-c2ccc(Cl)cc2)n(-c2ccc(Cl)cc2)n1
[2]
  IC50: 2.22 µM

## CNC(=O)c1cc(-c2ccc(Cl)cc2)n(-c2ccccc2)n1
[1]
  inhibition: 59%
[2]
  IC50: 19.8 µM

## CNC(=O)c1cc(-c2ccccc2)n(-c2ccc(Cl)cc2)n1
[1]
  inhibition: 61%
[2]
  IC50: 16.8 µM

## CN1CCC(O)CC1CNC(=O)c1cc(-c2ccc(Cl)cc2)n(-c2ccc(Cl)cc2)n1 (stereo unspecified)
[2]
  IC50: 0.993 µM

## CN1CCOC[C@H]1CNC(=O)c1cc(-c2ccc(Cl)cc2)n(-c2ccc(Cl)cc2)n1
[2]
  IC50: 2.01 µM

## O=C(c1cc(-c2ccc(Cl)cc2)n(-c2ccc(Cl)cc2)n1)N1CCCC1
[2]
  IC50: > 25 µM

## CS(=O)(=O)NCCNC(=O)c1cc(-c2ccc(Cl)cc2)n(-c2ccc(Cl)cc2)n1
[2]
  IC50: 4.37 µM

## CNC(=O)c1cc(-c2ccoc2)n(-c2ccc(Cl)cc2)n1
[1]
  inhibition: 16%
[2]
  IC50: > 25 µM

## CSc1ccc2c(c1)N(CCC1CCCCN1C)c1ccccc1S2 (stereo unspecified) [THIORIDAZINE]
[2]
  IC50: 3.43 µM

## O=C(NCCO)c1cc(-c2ccc(Cl)cc2)n(-c2ccc(Cl)cc2)n1
[2]
  IC50: 6.55 µM

## CNC(=O)c1cc(-c2ccc(Cl)cc2)n(Cc2ccccc2)n1
[1]
  inhibition: 57%
[2]
  IC50: 16.3 µM

B1: Mucosa-associated lymphoid tissue lymphoma translocation protein 1 (Homo sapiens), Q9UDY8 (protein)
chain: T1 sequence (whole entry)
[4]
  Km: 234 µM
